{"source": "paper PMC7961048", "about": "“Hierarchized phosphotarget binding by the seven human 14-3-3 isoforms” (Nature Communications, 2021)", "key": {"14-3-3ζ": {"target": "T1, 14-3-3ζ (Homo sapiens, UniProt P63104)", "T1 construct": "Plasmids containing the cDNAs of the full-length 14-3-3 isoforms ε, γ, and ζ were received; made in house; host or cells: E. coli BL21(DE3)", "T1 sequence (P63104 1-245)": "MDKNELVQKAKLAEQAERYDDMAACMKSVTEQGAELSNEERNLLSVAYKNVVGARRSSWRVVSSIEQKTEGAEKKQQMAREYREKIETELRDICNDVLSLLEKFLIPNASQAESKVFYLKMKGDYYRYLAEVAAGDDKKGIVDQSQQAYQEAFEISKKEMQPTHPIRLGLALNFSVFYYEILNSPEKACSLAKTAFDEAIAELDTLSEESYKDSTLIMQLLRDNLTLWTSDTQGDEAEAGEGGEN", "assay": "biochemical", "format": "binding"}, "14-3-3γ": {"target": "T2, 14-3-3γ (Homo sapiens, UniProt P61981)", "T2 construct": "full-length human 14-3-3 constructs with an N-terminal MBP fusion were used; made in house; host or cells: E. coli BL21(DE3)", "T2 sequence (P61981 1-247)": "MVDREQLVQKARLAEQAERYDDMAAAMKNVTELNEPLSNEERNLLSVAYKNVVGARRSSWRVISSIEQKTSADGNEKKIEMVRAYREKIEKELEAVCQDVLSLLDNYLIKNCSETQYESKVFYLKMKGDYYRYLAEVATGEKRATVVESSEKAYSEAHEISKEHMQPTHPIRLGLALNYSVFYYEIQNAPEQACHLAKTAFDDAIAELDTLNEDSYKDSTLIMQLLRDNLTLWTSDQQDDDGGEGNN", "assay": "biochemical", "format": "binding", "protocol": "FP was measured with a PHERAstar (BMG Labtech, Offenburg, Germany) microplate reader by using 485 ± 20 and 528 ± 20 nm band-pass filters (for excitation and emission, respectively). In direct FP measurements, a dilution series of the 14-3-3 protein was prepared in 96-well plates (96-well skirted PCR plate, 4ti-0740, 4titude, Wotton, UK) in a 20 mM HEPES pH 7.5 buffer containing 150 mM NaCl, 0.5 mM TCEP, 0.01% Tween 20, 50 nM fluorescently labeled fpB6 peptide, and 100 μM FSC, if indicated. The volume of the dilution series was 40 μl, which was later divided into three technical replicates of 10 μl upon transferring to 384-well micro-plates (low binding microplate, 384 well, E18063G5, Greiner Bio-One, Kremsmünster, Austria). In total, polarization of the probe was measured at eight different protein concentrations (whereas one contained no protein and corresponded to the free peptide). In competitive FP measurements, the same buffer was supplemented with the protein to achieve a complex formation of 60–80%, based on the direct titration. Then, this mixture was used for creating a dilution series of the unlabeled competitor (i.e., the studied peptides) and the measurement was carried out identically as in the direct experiment.\nAll FP experiments were done in triplicates. Analysis of FP experiments were carried out using ProFit, an in-house developed, Python-based fitting program. […]"}}, "note": "Starred links: 1 amine or outer side, 2 acyl side, 3 side chain; linkers in the order of their positions; H or OH if unused. Non-standard residues stand in square brackets, D forms with d. Residues, ends and D or L forms follow the SMILES beside them. *: point of attachment. X1 = O=C(CCCC[C@@H]1SC[C@@H]2NC(=O)N[C@@H]21)NCCCOCCOCCOCCCN*; pT = C[C@@H](OP(=O)(O)O)[C@H](N)C(=O)O; Suc = O=C(CCC(=O)[*:2])[*:1]", "data": [{"smiles": "CC(C)C[C@H](NC(=O)[C@H](CCC(N)=O)NC(=O)[C@@H](NC(=O)[C@H](CCC(=O)O)NC(=O)[C@H](CCCNC(=N)N)NC(=O)[C@H](CCCNC(=N)N)NC(=O)[C@@H](NC(=O)[C@H](CCCNC(=N)N)NC(=O)[C@H](CO)NC(=O)[C@H](CO)NC(=O)CCC(=O)NCCCOCCOCCOCCCNC(=O)CCCC[C@@H]1SC[C@@H]2NC(=O)N[C@@H]21)[C@@H](C)O)[C@@H](C)OP(=O)(O)O)C(=O)O", "note": "[pHPV16E6]", "values": [{"measurement": "Kd", "setting": "14-3-3ζ", "value": "73.6 ± 19.1", "unit": "µM"}]}, {"smiles": "CC(C)C[C@H](NC(=O)[C@H](CCCNC(=N)N)NC(=O)CCC(=O)NCCCOCCOCCOCCCNC(=O)CCCC[C@@H]1SC[C@@H]2NC(=O)N[C@@H]21)C(=O)N[C@@H](CCC(N)=O)C(=O)N[C@@H](CCCNC(=N)N)C(=O)N[C@@H](CCCNC(=N)N)C(=O)N[C@@H](CCCNC(=N)N)C(=O)N[C@@H](CCC(=O)O)C(=O)N[C@H](C(=O)N[C@@H](CCC(N)=O)C(=O)N[C@H](C(=O)O)C(C)C)[C@@H](C)OP(=O)(O)O", "note": "[pHPV18E6]", "values": [{"measurement": "Kd", "setting": "14-3-3ζ", "value": "22.4 ± 1.3", "unit": "µM"}]}, {"smiles": "CC(C)C[C@H](NC(=O)[C@H](C)NC(=O)[C@@H](NC(=O)[C@H](CCC(=O)O)NC(=O)[C@H](CCCNC(=N)N)NC(=O)[C@H](CCCNC(=N)N)NC(=O)[C@H](CCCNC(=N)N)NC(=O)[C@H](CO)NC(=O)[C@H](CCCNC(=N)N)NC(=O)[C@H](CO)NC(=O)CCC(=O)NCCCOCCOCCOCCCNC(=O)CCCC[C@@H]1SC[C@@H]2NC(=O)N[C@@H]21)[C@@H](C)OP(=O)(O)O)C(=O)O", "note": "[pHPV33E6] ({X1-Suc}-SRSRRRE[pT]AL-OH)", "values": [{"measurement": "Kd", "setting": "14-3-3γ", "value": "2.2 ± 0.3", "unit": "µM"}]}, {"smiles": "CC(C)[C@H](NC(=O)[C@H](C)NC(=O)[C@@H](NC(=O)[C@H](CCC(=O)O)NC(=O)[C@H](CCCNC(=N)N)NC(=O)[C@H](CCCNC(=N)N)NC(=O)[C@@H](NC(=O)[C@@H]1CCCN1C(=O)[C@H](CCCCN)NC(=O)[C@H](CO)NC(=O)CCC(=O)NCCCOCCOCCOCCCNC(=O)CCCC[C@@H]1SC[C@@H]2NC(=O)N[C@@H]21)[C@@H](C)O)[C@@H](C)OP(=O)(O)O)C(=O)O", "note": "[pHPV35E6E-1A] ({X1-Suc}-SKPTRRE[pT]AV-OH)", "values": [{"measurement": "Kd", "setting": "14-3-3ζ", "value": 17.6, "unit": "µM"}]}, {"smiles": "CC(C)[C@H](NC(=O)[C@H](CCC(=O)O)NC(=O)[C@@H](NC(=O)[C@H](CCC(=O)O)NC(=O)[C@H](CCCNC(=N)N)NC(=O)[C@H](CCCNC(=N)N)NC(=O)[C@H](CCCNC(=N)N)NC(=O)[C@@H]1CCCN1C(=O)[C@H](CCCCN)NC(=O)[C@H](CO)NC(=O)CCC(=O)NCCCOCCOCCOCCCNC(=O)CCCC[C@@H]1SC[C@@H]2NC(=O)N[C@@H]21)[C@@H](C)OP(=O)(O)O)C(=O)O", "note": "[pHPV35E6T-6R] ({X1-Suc}-SKPRRRE[pT]EV-OH)", "values": [{"measurement": "Kd", "setting": "14-3-3ζ", "value": "139 ± 21", "unit": "µM"}]}]}
